Measured values reported in PMC5766581, “NF-κB inducing kinase is a therapeutic target for systemic lupus erythematosus” (Nature Communications, 2018).

Legend:
[1] = system: nuclear p52 (non-canonical NF-κB signaling); assay: High content nuclear p52 imaging, anti-LTβR-stimulated HeLa cells; assay type: cell-based, human; settings: Homo sapiens, anti-LTβR induced, mean ± SD
Procedure: The HeLa cell line was used to define the cellular selectivity of NIK inhibitors toward inhibition of classical vs. non-classical NF-κB signaling using high content cellular imaging assays. For the nuclear translocation assay p52 (non-canonical NF-κB signaling), HeLa cells were treated with different concentrations of compounds previously diluted in DMSO (final [DMSO] = 0.2% in all wells) in DMEM medium (10% FBS, 2 mM Glutamine) and then stimulated with 300 ng/mL of an anti-lymphotoxin beta receptor antibody for 4.5 h. In the REL-A nuclear translocation assay, HeLa cells were incubated with compounds for 4 h 50 min before stimulating them with 2 ng/mL TNF (R&D Systems) for 10 min. Cells were fixed with 4% paraformaldehyde, permeabilized by adding 0.1% Triton X-100 in phosphate buffered saline, and then are incubated with either 2 μg/mL anti-p52 antibody or 400 ng/mL anti-REL-A (p65) antibody. Finally, the cells are incubated with an Alexa488-labeled secondary antibody (Invitrogen) and DRAQ5 DNA stain (Biostatus). Imaging was carried out using an Opera reader (Perkin Elmer) and data were analyzed with Acapella software (Perkin Elmer). The p52 or REL-A translocation into the nucleus is quantified by the ratio of the nuclear to cytoplasmic signal intensity.

human B cells = assay: Human B cell rhCD40L proliferation assay; assay type: cell-based; settings: Homo sapiens, B-cell; thymidine incorporation, day four; read-out: Human B cell anti-CD40 proliferation IC50
[2] = In vivo studies in mice: PK, target coverage, tolerability; set-up: species or system mouse
ALK2 = biological target: T1, ALK2 (Homo sapiens, UniProt Q04771); assay: SelectScreen kinase panel; assay type: binding
T1 construct: purchased Invitrogen / ThermoFisher SelectScreen
Procedure: (§1) The ability of NIK to catalyze the hydrolysis of adenosine-5′-triphosphate (ATP) was monitored using the Transcreener ADP (adenosine-5′-diphosphate) assay (Bell Brook Labs, Fitchburg, WI). Purified human NIK kinase domain (a.a. 340–694) (0.5 nM) or mouse NIK kinase domain (a.a. 329–675) (1 nM) derived from a baculovirus-infected insect cell expression system was incubated with test compounds for 0.5–2 h in 50 mM HEPES buffer (pH 7.2) containing 10 mM MgCl2, 2 mM dithiothreitol, 10 μM ATP, 0.01% Triton X-100, 0.1% gamma-globulins from bovine blood, 1% dimethylsulfoxide (DMSO), 7 μg/mL ADP antibody and 5 nM ADP-MR121 633 tracer. Reactions were quenched by the addition of 20 mM EDTA and 0.01% Brij 35. The tracer bound to the antibody was displaced by the ADP generated during the NIK reaction, which caused a decrease in fluorescence polarization that was measured by laser excitation at 633 nm with a Fluorescence Correlation Spectroscopy Plus reader (Evotec AG). Equilibrium dissociation constant (Ki) values for NIK inhibitors are calculated from plots of activity vs. inhibitor concentration using Morrison’s quadratic equation that accounts for the potential of tight binding, and by also applying the conversion factor that accounted for competitive inhibition and the concentration of substrate used in the assay relative to its Michaelis constant (Km). The Ki values with hPKD1 (PKCμ) were determined using the same assay conditions as for NIK. Ki measurements for hKHS1 and hLRRK2, as well as broad kinase selectivity profiling for SMI1, were carried out by Invitrogen using their SelectScreen kinase assay panel (ThermoFisher Scientific, Madison, WI). The vendor offered two types of kinase activity assays, a peptide phosphorylation assay (Z′-LYTE) and an ADP quantitation assay (Adapta), as well as one type of kinase ATP site competitive binding assay (LanthaScreen). See vendor web site for technology and protocol details for each specific kinase assay.
(§2) The average % Inhibition of each kinase is reported (Supplementary Table 1).

ASK1 = biological target: T2, ASK1 (Homo sapiens, UniProt Q99683); assay: SelectScreen kinase panel; assay type: binding
T2 construct: purchased Invitrogen / ThermoFisher SelectScreen
Procedure: as §1, §2

CAMKK2 = biological target: T3, CAMKK2 (Homo sapiens, UniProt Q96RR4); assay: SelectScreen kinase panel; assay type: binding
T3 construct: purchased Invitrogen / ThermoFisher SelectScreen
Procedure: as §1, §2

DDR1 = biological target: T4, DDR1 (Homo sapiens, UniProt Q08345); assay: SelectScreen kinase panel; assay type: binding
T4 construct: purchased Invitrogen / ThermoFisher SelectScreen
Procedure: as §1, §2

LIMK1 = biological target: T5, LIMK1 (Homo sapiens, UniProt P53667); assay: SelectScreen kinase panel; assay type: binding
T5 construct: purchased Invitrogen / ThermoFisher SelectScreen
Procedure: as §1, §2

MEK3 = biological target: T6, MEK3 (Homo sapiens, UniProt P46734); assay: SelectScreen kinase panel; assay type: binding
T6 construct: purchased Invitrogen / ThermoFisher SelectScreen
Procedure: as §1, §2

MKNK2 = biological target: T7, MKNK2 (Homo sapiens, UniProt Q9HBH9); assay: SelectScreen kinase panel; assay type: binding
T7 construct: purchased Invitrogen / ThermoFisher SelectScreen
Procedure: as §1, §2

MYLK = biological target: T8, MYLK (Homo sapiens, UniProt Q15746); assay: SelectScreen kinase panel; assay type: binding
T8 construct: purchased Invitrogen / ThermoFisher SelectScreen
Procedure: as §1, §2

MYLK3 = biological target: T9, MYLK3 (Homo sapiens, UniProt Q32MK0); assay: SelectScreen kinase panel; assay type: binding
T9 construct: purchased Invitrogen / ThermoFisher SelectScreen
Procedure: as §1, §2

NLK = biological target: T10, NLK (Homo sapiens, UniProt Q9UBE8); assay: SelectScreen kinase panel; assay type: binding
T10 construct: purchased Invitrogen / ThermoFisher SelectScreen
Procedure: as §1, §2

RIPK2 = biological target: T11, RIPK2 (Homo sapiens, UniProt O43353); assay: SelectScreen kinase panel; assay type: binding
T11 construct: purchased Invitrogen / ThermoFisher SelectScreen
Procedure: as §1, §2

SLK = biological target: T12, SLK (Homo sapiens, UniProt Q9H2G2); assay: SelectScreen kinase panel; assay type: binding
T12 construct: purchased Invitrogen / ThermoFisher SelectScreen
Procedure: as §1, §2

TEC = biological target: T13, TEC (Homo sapiens, UniProt P42680); assay: SelectScreen kinase panel; assay type: binding
T13 construct: purchased Invitrogen / ThermoFisher SelectScreen
Procedure: as §1, §2

TNK2 = biological target: T14, TNK2 (Homo sapiens, UniProt Q07912); assay: SelectScreen kinase panel; assay type: binding
T14 construct: purchased Invitrogen / ThermoFisher SelectScreen
Procedure: as §1, §2

WEE1 = biological target: T15, WEE1 (Homo sapiens, UniProt P30291); assay: SelectScreen kinase panel; assay type: binding
T15 construct: purchased Invitrogen / ThermoFisher SelectScreen
Procedure: as §1, §2

T7 sequence (Q9HBH9 whole entry): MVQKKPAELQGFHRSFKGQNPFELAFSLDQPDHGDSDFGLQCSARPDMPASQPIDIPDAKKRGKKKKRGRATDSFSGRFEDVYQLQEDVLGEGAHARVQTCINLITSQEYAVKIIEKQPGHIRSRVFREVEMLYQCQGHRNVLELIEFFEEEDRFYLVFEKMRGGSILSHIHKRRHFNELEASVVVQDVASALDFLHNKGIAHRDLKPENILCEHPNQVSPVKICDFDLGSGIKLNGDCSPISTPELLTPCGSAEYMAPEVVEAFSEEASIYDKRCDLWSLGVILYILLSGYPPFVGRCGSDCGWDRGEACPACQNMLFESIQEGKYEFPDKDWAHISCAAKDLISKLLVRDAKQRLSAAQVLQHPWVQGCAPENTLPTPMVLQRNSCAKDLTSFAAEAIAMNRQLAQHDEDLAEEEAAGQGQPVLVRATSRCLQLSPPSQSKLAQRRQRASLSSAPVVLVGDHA
T10 sequence (Q9UBE8 whole entry): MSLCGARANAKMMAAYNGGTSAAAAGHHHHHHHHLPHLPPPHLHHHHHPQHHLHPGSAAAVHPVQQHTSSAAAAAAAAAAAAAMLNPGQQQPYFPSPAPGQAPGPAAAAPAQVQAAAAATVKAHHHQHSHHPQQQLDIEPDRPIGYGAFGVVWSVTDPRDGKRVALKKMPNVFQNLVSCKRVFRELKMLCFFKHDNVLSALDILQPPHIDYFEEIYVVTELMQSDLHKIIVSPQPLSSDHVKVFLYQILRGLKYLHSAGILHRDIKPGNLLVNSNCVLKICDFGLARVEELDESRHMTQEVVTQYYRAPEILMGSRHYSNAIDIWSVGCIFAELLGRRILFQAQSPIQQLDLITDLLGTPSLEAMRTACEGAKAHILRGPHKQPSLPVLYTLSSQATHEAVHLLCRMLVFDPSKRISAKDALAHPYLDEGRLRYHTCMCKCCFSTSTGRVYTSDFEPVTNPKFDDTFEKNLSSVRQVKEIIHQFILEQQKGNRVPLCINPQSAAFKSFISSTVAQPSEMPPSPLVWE
T5 sequence (P53667 whole entry): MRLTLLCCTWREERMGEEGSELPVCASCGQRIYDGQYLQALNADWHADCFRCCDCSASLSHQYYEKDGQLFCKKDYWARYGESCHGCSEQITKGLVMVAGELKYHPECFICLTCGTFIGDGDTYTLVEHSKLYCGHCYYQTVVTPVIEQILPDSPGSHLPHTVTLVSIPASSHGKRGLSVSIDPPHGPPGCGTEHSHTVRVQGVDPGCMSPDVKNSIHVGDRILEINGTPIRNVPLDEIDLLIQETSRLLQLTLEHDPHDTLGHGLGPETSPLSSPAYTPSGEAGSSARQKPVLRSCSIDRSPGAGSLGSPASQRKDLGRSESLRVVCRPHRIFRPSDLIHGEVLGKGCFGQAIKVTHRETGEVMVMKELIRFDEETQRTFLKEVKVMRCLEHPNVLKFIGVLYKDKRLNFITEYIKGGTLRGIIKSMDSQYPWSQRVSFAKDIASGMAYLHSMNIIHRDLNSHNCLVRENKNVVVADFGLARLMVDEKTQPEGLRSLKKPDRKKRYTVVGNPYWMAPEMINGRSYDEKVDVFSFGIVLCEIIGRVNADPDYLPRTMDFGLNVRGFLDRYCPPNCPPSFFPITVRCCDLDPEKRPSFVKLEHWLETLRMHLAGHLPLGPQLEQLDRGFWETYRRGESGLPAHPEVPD
T13 sequence (P42680 whole entry): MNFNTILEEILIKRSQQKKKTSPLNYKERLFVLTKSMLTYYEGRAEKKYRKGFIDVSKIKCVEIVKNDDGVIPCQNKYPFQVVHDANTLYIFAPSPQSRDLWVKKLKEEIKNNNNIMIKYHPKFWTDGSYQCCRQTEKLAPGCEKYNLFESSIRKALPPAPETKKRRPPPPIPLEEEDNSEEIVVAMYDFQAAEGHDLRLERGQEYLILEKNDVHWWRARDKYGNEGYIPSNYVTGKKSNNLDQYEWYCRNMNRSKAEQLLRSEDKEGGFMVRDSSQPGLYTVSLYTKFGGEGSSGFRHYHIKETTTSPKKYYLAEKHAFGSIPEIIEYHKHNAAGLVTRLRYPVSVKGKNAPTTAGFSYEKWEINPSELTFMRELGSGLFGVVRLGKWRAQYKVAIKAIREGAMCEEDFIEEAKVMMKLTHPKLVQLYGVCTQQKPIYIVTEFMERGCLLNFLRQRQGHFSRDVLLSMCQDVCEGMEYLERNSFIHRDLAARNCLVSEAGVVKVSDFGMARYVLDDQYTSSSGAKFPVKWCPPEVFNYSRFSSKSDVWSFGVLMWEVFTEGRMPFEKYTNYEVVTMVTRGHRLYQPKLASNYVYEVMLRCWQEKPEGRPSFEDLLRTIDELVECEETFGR
T14 sequence (Q07912 whole entry): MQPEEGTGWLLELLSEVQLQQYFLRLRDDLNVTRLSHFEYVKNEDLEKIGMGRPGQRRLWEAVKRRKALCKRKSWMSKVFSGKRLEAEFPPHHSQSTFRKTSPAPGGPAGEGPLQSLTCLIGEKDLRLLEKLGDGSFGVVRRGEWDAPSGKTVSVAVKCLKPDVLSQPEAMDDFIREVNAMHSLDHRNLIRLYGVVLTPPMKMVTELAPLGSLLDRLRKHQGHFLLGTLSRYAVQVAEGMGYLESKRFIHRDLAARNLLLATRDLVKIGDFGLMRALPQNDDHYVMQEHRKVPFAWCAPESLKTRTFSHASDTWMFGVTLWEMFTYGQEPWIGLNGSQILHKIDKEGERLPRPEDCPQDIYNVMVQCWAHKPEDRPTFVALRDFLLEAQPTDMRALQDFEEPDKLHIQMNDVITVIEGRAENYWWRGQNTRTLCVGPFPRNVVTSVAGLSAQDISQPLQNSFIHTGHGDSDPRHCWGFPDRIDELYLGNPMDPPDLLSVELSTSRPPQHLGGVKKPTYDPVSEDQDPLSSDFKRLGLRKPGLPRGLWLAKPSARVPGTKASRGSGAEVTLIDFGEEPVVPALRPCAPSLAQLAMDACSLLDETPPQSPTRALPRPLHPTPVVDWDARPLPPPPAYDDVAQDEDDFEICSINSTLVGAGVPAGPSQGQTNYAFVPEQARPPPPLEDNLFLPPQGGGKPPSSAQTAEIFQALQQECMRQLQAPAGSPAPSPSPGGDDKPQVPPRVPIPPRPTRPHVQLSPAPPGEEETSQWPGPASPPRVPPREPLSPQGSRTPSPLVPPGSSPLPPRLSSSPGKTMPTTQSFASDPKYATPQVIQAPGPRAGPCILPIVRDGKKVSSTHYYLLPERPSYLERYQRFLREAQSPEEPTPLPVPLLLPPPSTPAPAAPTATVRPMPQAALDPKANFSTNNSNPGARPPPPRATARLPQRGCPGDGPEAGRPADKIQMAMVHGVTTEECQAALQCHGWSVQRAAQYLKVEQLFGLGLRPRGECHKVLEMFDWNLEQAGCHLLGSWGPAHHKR
T11 sequence (O43353 whole entry): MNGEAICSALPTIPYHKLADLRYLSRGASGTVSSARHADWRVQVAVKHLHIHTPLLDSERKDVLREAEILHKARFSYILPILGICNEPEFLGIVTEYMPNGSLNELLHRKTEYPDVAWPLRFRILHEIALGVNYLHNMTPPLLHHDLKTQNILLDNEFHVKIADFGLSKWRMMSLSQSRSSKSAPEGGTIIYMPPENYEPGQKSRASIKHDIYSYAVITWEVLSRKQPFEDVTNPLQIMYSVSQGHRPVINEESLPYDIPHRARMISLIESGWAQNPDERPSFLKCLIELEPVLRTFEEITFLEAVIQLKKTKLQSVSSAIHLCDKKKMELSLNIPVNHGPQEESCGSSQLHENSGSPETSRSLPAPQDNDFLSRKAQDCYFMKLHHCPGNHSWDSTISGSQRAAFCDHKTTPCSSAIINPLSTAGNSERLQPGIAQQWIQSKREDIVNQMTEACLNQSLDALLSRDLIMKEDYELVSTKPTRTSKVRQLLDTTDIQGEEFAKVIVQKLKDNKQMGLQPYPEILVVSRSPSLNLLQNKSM
T9 sequence (Q32MK0 whole entry): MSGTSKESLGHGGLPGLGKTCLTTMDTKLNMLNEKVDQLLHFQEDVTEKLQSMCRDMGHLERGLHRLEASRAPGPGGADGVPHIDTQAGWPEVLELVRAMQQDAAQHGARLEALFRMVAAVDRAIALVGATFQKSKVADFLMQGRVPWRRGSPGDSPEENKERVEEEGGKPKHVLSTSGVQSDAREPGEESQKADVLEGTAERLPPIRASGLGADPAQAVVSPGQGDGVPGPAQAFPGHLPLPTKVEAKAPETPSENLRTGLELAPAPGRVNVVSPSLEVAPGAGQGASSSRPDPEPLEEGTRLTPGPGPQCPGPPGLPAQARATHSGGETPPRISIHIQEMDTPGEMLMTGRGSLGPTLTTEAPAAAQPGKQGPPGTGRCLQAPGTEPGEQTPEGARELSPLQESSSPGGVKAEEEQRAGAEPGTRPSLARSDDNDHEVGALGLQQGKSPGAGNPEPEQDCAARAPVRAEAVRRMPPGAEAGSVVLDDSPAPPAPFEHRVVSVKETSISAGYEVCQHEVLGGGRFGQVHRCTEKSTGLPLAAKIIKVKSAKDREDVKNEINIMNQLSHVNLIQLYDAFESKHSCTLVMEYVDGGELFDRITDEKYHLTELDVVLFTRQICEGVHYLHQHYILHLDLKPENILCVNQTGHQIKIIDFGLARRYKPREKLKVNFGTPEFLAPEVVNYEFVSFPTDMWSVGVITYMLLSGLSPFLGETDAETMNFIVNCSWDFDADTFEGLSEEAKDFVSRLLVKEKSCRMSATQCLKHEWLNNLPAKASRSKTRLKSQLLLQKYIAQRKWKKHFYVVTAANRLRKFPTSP
T6 sequence (P46734 whole entry): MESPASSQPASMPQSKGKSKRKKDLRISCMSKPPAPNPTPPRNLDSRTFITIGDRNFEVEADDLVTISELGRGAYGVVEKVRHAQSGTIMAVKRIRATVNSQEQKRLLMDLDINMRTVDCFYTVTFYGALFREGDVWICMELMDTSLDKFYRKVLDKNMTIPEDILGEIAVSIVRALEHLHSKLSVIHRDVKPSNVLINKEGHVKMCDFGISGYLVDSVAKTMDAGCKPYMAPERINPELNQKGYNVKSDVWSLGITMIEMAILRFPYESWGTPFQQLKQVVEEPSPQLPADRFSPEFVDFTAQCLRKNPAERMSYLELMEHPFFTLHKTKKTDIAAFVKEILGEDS

COc1cc(C(N)=O)nc(-c2cccc(C#C[C@]3(O)CCN(C)C3=O)c2)c1 [NIK SMI1]
IC50 [1]: 70 nM
IC50 (human B cells): > 10 µM
adverse effect not explained by on-target pharmacology ([2]; 180 mg/kg, no formal toxicity assessment): never observed any adverse effect
coverage of NIK activity in vivo ([2]; doses used in vivo): 70–90%
PK properties ([2]; mouse, in vivo): excellent
inhibition at 1 µM (ALK2): 5.8%
inhibition at 1 µM (ASK1): 3.8%
inhibition at 1 µM (CAMKK2): 1.1%
inhibition at 1 µM (DDR1): 2.7%
inhibition at 1 µM (LIMK1): 16.8%
inhibition at 1 µM (MEK3): 11.4%
inhibition at 1 µM (MKNK2): 23.3%
inhibition at 1 µM (MYLK): 7.5%
inhibition at 1 µM (MYLK3): 45.3%
inhibition at 1 µM (NLK): 4.2%
inhibition at 1 µM (RIPK2): -0.1%
inhibition at 1 µM (SLK): 2.6%
inhibition at 1 µM (TEC): 1.1%
inhibition at 1 µM (TNK2): 0.1%
inhibition at 1 µM (WEE1): 6.2%
